Where no end group is shown, it is not given here.
Assays:
RIN 1046-38 cells [1] = assay: cAMP formation in insulinoma cell line; type: cell-based, rat; conditions: for Effect on cAMP levels: 0.5 μM; for Effects on the formation of cAMP: at 5 nM and 50 pM
Procedure: Cells were grown as described in Example 1, in […] culture dishes. Varying amounts of glucagon-like peptides were added to culture wells in triplicate. […] Twenty microliters from each culture well was assayed.
Insulinotropic activity was monitored as described by Mojsov, S., et al., (J. Clin. Invest. 79:616–619 (1987)) and Drucker, D. J., et al., (Proc. Natl Acad. Sci. 84:3434–3438 (1987)), both of which references are incorporated by reference herein. […]

rat pancreas = assay: Pancreatic perfusion assay of insulinotropic activity (effluent insulin); type: in vivo; conditions: for Insulinotropic activity (perfusate insulin): Table 6; for Mean perfusate insulin concentration: 10^−9 M for 5 minutes; for Insulinotropic activity: 10^−11 M, five minute perfusions, FIG. 4
Procedure: The in situ isolated perfused rat pancreas preparation was a modification of the method of Penhos, J. C., el al. (Diabetes 18:733–738 (1969)). In accordance with such a method, fasted rats (preferably male Charles River strain albino rats), weighing 350–600 g, are anesthetized with an intraperitoneal injection of Amytal Sodium (Eli Lilly and Co., 160 ng/kg). Renal, adrenal, gastric, and lower colonic blood vessels are ligated. The entire intestine is resected except for about four cm of duodenum and the descending colon and rectum. […] The perfusate is preferably a modified Krebs-Ringer bicarbonate buffer with 4% dextran T70 and 0.2% bovine serum albumin (fraction V), and is preferably bubbled with 95% O2 and 5% CO2. A nonpulsatile flow, four-channel roller-bearing pump (Buchler polystatic, Buchler Instruments Division, Nuclear-Chicago Corp.) is preferably used, and a switch from one perfusate source to another is preferably accomplished by switching a three-way stopcock.
Isolated rat pancreas was prepared according to the method of Weir, G. C., et al., (J. Clin. Invest. 54:1403–1412 (1974)), and Penkos, J. C., et al. (Diabetes 18:733–738 (1969)). The perfusate contained bicarbonate buffer (pH 7.4) and 120 mg/dl glucose, 4% dextran T-70, and 0.2% bovine serum albumin, and was equilibrated with 95% oxygen and 5% carbon dioxide. The first 20 minutes of each perfusion was an equilibrium period. After this initial period, aliquots of perfusate were removed every 2–4 min for additional 20 min, thus allowing the system to equilibrate for a total of 40 min. The perfusion, including any added insulinotropic peptide, was for 6 min and samples were collected at 1-min intervals. When more than one perfusion was to be performed, the peptide perfusions were followed by equilibration periods of 20 min, during which four samples 5 min apart were collected. […] Again, samples 1 min apart were collected. The entire perfusion time was between 70 and 85 min.
In each aliquot of perfusate obtained, insulin was determined by radioimmunoassay. […] At one minute intervals, pancreas effluent insulin levels in picograms/ml were determined by radioimmunoassay (as described above).

βTC-1 cells [2] = assay: Proinsulin biosynthesis ([3H]leucine labelling); type: cell-based, mouse; conditions: 6 hours labeling
Procedure: βTC-1 cells (Efrat et al., Proc. Natl. Acad. Sci. (USA) 85:9037–9041 (1988)) were grown in a humidified atmosphere at 37° C. in RPMI 1640 medium supplemented with 10% (vol/vol) fetal bovine serum, 5% (vol/vol) horse serum, 100 U/ml penicillin and 100 μg/ml streptomycin. Media were changed after three days and cells were split 1:3 after six days.
βTC-1 cells were plated into 35 mm plates and grown for two days to reach 80–90% confluency. During a 6 hour labeling period cells were incubated in 1 ml RPMI 1640 supplemented with 0.1% human serum albumin, 0.1% bacitracin and 50 μCi[^3H]leucine. Forskolin, IBMX, 8-Bromo-cAMP and GLP-1(7-37) were added from stock solutions as described (see “cell transfection”). Cells were harvested in PBS and lysed by three freeze-thaw cycles. Immunoreactive proinsulin was precipitated with an antiserum raised in rabbits against pork insulin that was coupled to a 10% suspension of bacterial lysates (Saureus) containing protein A. Radioactivity contained in the resulting pellets was counted using a lliquid scintillation counter. Incorporation of [^3H]leucine into total protein was measured in trichloroacetic acid precipitates of the cells. None of the agents tested had any effects on [^3H]leucine incorporation into TCA precipitable proteins. Data are expressed as fold-induction of proinsulin biosynthesis above those in the control experiments (no treatment).

[3] = test system: rat insulin I gene promoter in βTC-1 cells; assay: CAT activity in cells transiently transfected with −410 Ins-CAT plasmid; type: cell-based, mouse; conditions: 24 hours
Procedure: Cells of two 80–90% confluent 150 mm culture plates were trypsinized and transfected in solution in one tube with 15 μg of indicator plasmid using the DEAE-dextran method. The plasmid contained 410 bp of the rat insulin I gene promoter fused to the transcriptional reporter gene encoding the bacterial enzyme chloramphenicol-acetyltransferase (CAT). […] Subsequently cells were plated into 18 wells of six well plates. […] Thereby, differences in transfection deficiencies reflected in CAT activities were normalized against protein concentrations as well as the respective control experiments. After transfection cells were incubated in RPMI 1640 supplemented with 0.1% human serum albumin and 0.1% bacitracin. […] After extraction with ethylacetate (1 ml) acetylated and non-acetylated ^14C-chloramphenicol were separated by thin-layer chromatography (chloroform:methanol 9:1), identified by autoradiography and the respective spots were scraped from the plates and radioactivity was counted in a scintillation counter.

βTC-1 cells [4] = assay: Cellular insulin content by radioimmunoassay; type: cell-based, mouse; conditions: 24 hours
Procedure: Two days before the experiment commenced, cells were plated into 35 mm plates. Media were changed to RPMI 1640 supplemented with 0.1% human serum albumin and 0.1% bacitracin. […] After incubation for 24 hours under these conditions, cells were washed three times with PBS and harvested in 1.5 ml buffer containing 150 mM NaCl, 1 mM EDTA and 40 mM Tris/Cl pH 7.4 and resuspended in 200 μl PBS. Fifty μl of this cell suspension were resuspended in 1 ml 1 M acetic acid and extracted for 16 hours at 4° C. Aliquots (2 and 20 μl) were lyophilized and reconstituted in insulin-RIA buffer. The cell number of each plate was controlled by determination of total protein in the initial cell lysate. […] Insulin was measured with a radioimmunoassay system using an antiserum raised in rabbits against pork insulin and pork insulin as the standard. […] Data are presented as fold-increase of insulin content per well above the control experiments (no treatment).

[5] = molecular target: receptor involved in the recognition of glucagon; assay: cell-based or functional assay
RIN 1046-38 cells [6] = assay: Levels of insulin, actin and angiotensinogen mRNAs by Northern blot densitometry; type: cell-based, rat
Procedure: Rat insulinoma cells of cell line RIN-38 were derived from a continuous islet cell line, RIN-r, which was established from a transplantable rat islet cell tumor (Gazdar, A. F., et al., Proc. Natl. Acad. Sci., USA 77:3519–3523 (1980)). The cells were maintained in DMEM (Gibco) at a glucose concentration of 4,500 mg/L and supplemented with 10% heat-inactivated fetal bovine serum (Gibco), 100 U/ml of penicillin and 100 μg/ml of streptomycin. Incubations were carried out at 37° C. in 95% air:5% CO2. Cells grown in the above manner were washed and resuspended in DMEM (Gibco) containing 0.1% bovine serum albumin and 25 mM glucose. […] Incubations were for six hours.
Messenger RNAs specific for insulin, actin, or angiotensinogen were identified by Northern hybridization as follows: cellular RNA was extracted from solid tumors and cells by homogenization in guanidine thiocyanate and sedimentation through a cesium chloride cushion. Poly A^+ RNA was isolated by oligo dT cellulose chromatography (Aviv, H., et al., Proc. Natl. Acad. Sci., USA 69:1408–1412 (1972)). Twenty micrograms of total RNA from each sample were fractionated by size on a 1.4% agarose gel after denaturation in glyoxal, followed by electrotransfer to a nylon membrane (Nytran; Schleicher and Schuell). Blotted membranes were baked for two hours at 80° C. under vacuum, prehybridized in 1M NaCl/1% SDS/10% Dextran sulfate at 50° C. overnight and hybridized at the same temperature for 24 h after addition of the labeled probes (3–5×10^5 cpm/ml); they were then washed at 55° C. twice in 1×SCC (0.15M NaCl/0.015 M Na citrate)/1% SDS), and exposed to X-ray film for varying times at −70° C. with an intensifying screen. The relative amounts of the specific mRNA were determined by microdensitometry.

cellular receptors = assay: cell-based or functional assay

## des-7 histidine GLP-1(7-37) (AEGTFTSDVSSYLEGQAAKEFIAWLVKGRG) [GLP-1 (8-37)]
RIN 1046-38 cells [1]; Table 8, 10^−5 M
  cAMP formation: 77 ± 11 f-mole/5 ul of cell extract/15 min exposure to peptide
RIN 1046-38 cells [1]; Table 8, 10^−6 M
  cAMP formation: 31 ± 3 f-mole/5 ul of cell extract/15 min exposure to peptide
RIN 1046-38 cells [1]; Table 8, 10^−7 M
  cAMP formation: 24 ± 2 f-mole/5 ul of cell extract/15 min exposure to peptide
RIN 1046-38 cells [1]; Table 8, 10^−8 M, no peptide 27 ± 2, mean ± S.E.M.
  cAMP formation: 28 ± 0.8 f-mole/5 ul of cell extract/15 min exposure to peptide
RIN 1046-38 cells [1]; cAMP formation
  Insulinotropic activity compared with glucagon: comparable to that of glucagon
Rat pancreas; perfusate glucose 6.6 mM, 10^−7 M
  Effect on insulin secretion: weak insulinotropic activity
Rat pancreas; perfusate glucose 6.6 mM, 10^−11, 10^−9, or 10^−8 M
  Effect on insulin secretion: no detectable effect
Rat pancreas; perfusate glucose 16.7 mM, 10^−9 M
  Effect on insulin secretion: no effect

## CC(C)Cn1c(=O)n(C)c(=O)c2[nH]cnc21 [IBMX]
βTC-1 cells [2]; 0.5 mM
  Increase of proinsulin biosynthesis: 1.53±0.06 fold
[3]; 0.5 mM
  Increase of CAT activity: 2.6±0.16 fold
βTC-1 cells [4]; 0.5 mM
  Increase of total cellular insulin content: 1.30±0.12 fold

## glucagon (from UniProt P01275 53-81) (peptide)
[5]
  mean perfusate insulin concentration, perfused rat pancreas, glucagon alone at 10^-9 M: 4.98 ng/mL

## C=C[C@@]1(C)CC(=O)[C@]2(O)[C@@]3(C)[C@@H](O)CCC(C)(C)[C@@H]3[C@H](O)[C@H](OC(C)=O)[C@@]2(C)O1 [Forskolin, forskolin]
βTC-1 cells [2]; 10 μM
  Increase of proinsulin biosynthesis: 1.53±0.06 fold
[3]; 10 μM
  Increase of CAT activity: 3.3±0.57 fold
βTC-1 cells [4]; 10 μM
  Increase of total cellular insulin content: 1.49±0.18 fold

## GLP-1-(1-36)-NH2: GLP-1(1-36 des-gly-arg amide); Peninsula Laboratories (HDEFERHAEGTFTSDVSSYLEGQAAKEFIAWLVKGR-NH2; UniProt P01275 92-127, looked up, fragment)
RIN 1046-38 cells [1]
  Effect on cAMP levels: increased cAMP levels
  Effects on the formation of cAMP: negligible
RIN 1046-38 cells [1]; Exp. 4, 5 × 10^−7 M, control 41.3 ± 7.1
  cAMP: 70.2 ± 2.8 (b) fmol
RIN 1046-38 cells [6]; Experiment 1, peptide 5 × 10^−7 M, control 0.68 ± 0.03
  Actin mRNA level: 0.87 ± 0.19 Arbitrary densitometric units
RIN 1046-38 cells [6]; Experiment 1, peptide 5 × 10^−7 M, control 1.28 ± 0.18, mean ± SEM
  Insulin mRNA level: 2.78 ± 0.51^4 Arbitrary densitometric units
RIN 1046-38 cells [6]; Experiment 1, peptide 5 × 10^−7 M, control 2.67 ± 0.31
  Angiotensinogen mRNA level: 2.56 ± 0.22 Arbitrary densitometric units

## GLP-1(7-36)-NH2: GLP-1(7-36) with the C-terminal residue, arginine, in amidated form as arginineamide
RIN 1046-38 cells [1]; IBMX 100 uM, peptide 10^−7 M
  cAMP formation: 358 ± 32 fmoles/10 ul of cell extract
RIN 1046-38 cells [1]; IBMX 100 uM, peptide 10^−9 M
  cAMP formation: 225 ± 16 fmoles/10 ul of cell extract
RIN 1046-38 cells [1]; IBMX 100 uM, peptide 10^−11 M, 10 minutes, control 161 ± 10
  cAMP formation: 141 ± 5 fmoles/10 ul of cell extract
RIN 1046-38 cells [1]; IBMX 500 uM, peptide 10^−7 M
  cAMP formation: 1676 ± 113 fmoles/10 ul of cell extract
RIN 1046-38 cells [1]; IBMX 500 uM, peptide 10^−9 M
  cAMP formation: 1199 ± 41 fmoles/10 ul of cell extract
RIN 1046-38 cells [1]; IBMX 500 uM, peptide 10^−11 M, control 540 ± 22
  cAMP formation: 446 ± 38 fmoles/10 ul of cell extract
Rat pancreas; time +1 minute
  Insulinotropic activity (perfusate insulin): 4550 ± 703
Rat pancreas; time +2 minutes
  Insulinotropic activity (perfusate insulin): 3330 ± 637
Rat pancreas; time +3 minutes
  Insulinotropic activity (perfusate insulin): 2500 ± 564
Rat pancreas; time −1 minute (before peptide), 5 minute perfusion
  Insulinotropic activity (perfusate insulin): 985 ± 275
Rat pancreas; perfused rat pancreas
  Potency as secretagogue, 7-37 form versus 7-36-amide: equally potent secretagogues

## GLP-2: glucagon-like peptide 2, 34 amino acid residues long
RIN 1046-38 cells [1]; even at 10^−11 M
  Stimulation of cAMP levels: neither GLP-1(1-37) nor GLP-2 (GLP-2) exhibited such activity
RIN 1046-38 cells [6]
  Effects on insulin mRNA levels: no effects

## glucagon
RIN 1046-38 cells [1]
  Effect on cAMP levels: increased cAMP levels
  Effects on the formation of cAMP: negligible
RIN 1046-38 cells [1]; Exp. 1, 5 × 10^−9 M
  cAMP: 20.1 ± 2.5 (a) fmol
RIN 1046-38 cells [1]; Exp. 1, 5 × 10^−10 M
  cAMP: 16.5 ± 2.0 (NS) fmol
RIN 1046-38 cells [1]; Exp. 1, 5 × 10^−11 M
  cAMP: 13.2 ± 1.0 (NS) fmol
RIN 1046-38 cells [1]; Exp. 1, 5 × 10^−12 M, per 1/50th of cell extract per plate, control 15.4 ± 0.7, mean ± SEM
  cAMP: 18.7 ± 2.2 (NS) fmol
RIN 1046-38 cells [1]; Exp. 2, 5 × 10^−7 M
  cAMP: 93.1 ± 2.9 (c) fmol
RIN 1046-38 cells [1]; Exp. 2, 5 × 10^−8 M, control 43.6 ± 4.1
  cAMP: 44.8 ± 1.6 (NS) fmol
RIN 1046-38 cells [1]; Table 8, 10^−6 M
  cAMP formation: 92 ± 9 f-mole/5 ul of cell extract/15 min exposure to peptide
Rat pancreas; glucose 6.6 mM, absence of GLP-1 (8-37)
  Mean perfusate insulin concentration: 4.98 ± 0.96 ng/mL
Rat pancreas; glucose 6.6 mM, presence of 10^−8 M GLP-1 (8-37), N=4
  Mean perfusate insulin concentration: 5.26 ± 0.89 ng/mL
Rat pancreas; 10^−9 M, glucose 6.6 mM
  Peak insulin release: 4.5 ± 0.5 ng/mL
Rat pancreas; 10^−11M
  Insulin release: no release
Rat pancreas; pancreatic B cell secretagogue
  Concentration at which an insulinotropic effect is still mediated (as low as): 10^−9 M
RIN 1046-38 cells [6]
  Effects on insulin mRNA levels: no effects

## GLP-1(7-35): derivative of GLP-1(1-37), amino acids 7-35 (HAEGTFTSDVSSYLEGQAAKEFIAWLVKG; Glucagon-like peptide 1; UniProt P01275 98-126, looked up, fragment)
Rat pancreas
  Insulinotropic activity: detectable insulinotropic activity

## GLP-1(7-34): derivative of GLP-1(1-37), amino acids 7-34 (HAEGTFTSDVSSYLEGQAAKEFIAWLVK; Glucagon-like peptide 1; UniProt P01275 98-125, looked up, fragment)
Rat pancreas
  Insulinotropic activity: detectable insulinotropic activity

## His-Ala-Glu-Gly-Thr-Phe-Thr-Ser-Asp-Val-Ser-Ser-Tyr-Leu-Glu-Gly-Gln-Ala-Ala-Lys-Glu-Phe-Ile-Ala-Trp-Leu-Val-Lys-Gly-Arg (HAEGTFTSDVSSYLEGQAAKEFIAWLVKGR; printed: His-Ala-Glu-Gly-Thr-Phe-Thr-Ser-Asp-Val-Ser-Ser-Tyr-Leu-Glu-Gly-Gln-Ala-Ala-Lys-Glu-Phe-Ile-Ala-Trp-Leu-Val-Lys-Gly-Arg) [GLP-1(7-36), GLP-1 polypeptide having all amino acids from number 7 through number 36]
Rat pancreas; 10^−11M
  Insulinotropic activity compared with GLP-1(7-37): equiavlent to GLP-1(7-37)

## HDEFERHAEGTFTSDVSSYLEGQAAKEFIAWLVKGRG [glucagon-like peptide-1 (1-37)]
Cellular receptors
  cAMP level in RIN-38 cells, 10 min, peptide at 10^-6 M (no peptide: 91): 170
  cAMP level in RIN-38 cells, 10 min, peptide at 10^-7 M (no peptide: 91): 120
  cAMP level in RIN-38 cells, 10 min, peptide at 10^-8 M (no peptide: 91): 160
  cAMP level in RIN-38 cells, 10 min, peptide at 10^-9 M (no peptide: 91): 100
  cAMP level in RIN-38 cells, 10 min, peptide at 10^-10 M (no peptide: 91): 90
  cAMP level in RIN-38 cells, 10 min, peptide at 10^-11 M (no peptide: 91): 90

## HAEGTFTSDVSSYLEGQAAKEFIAWLVKGRG [glucagon-like peptide-1 (7-37)]
Cellular receptors
  cAMP level in RIN-38 cells, 10 min, peptide at 10^-6 M (no peptide: 140): 400
  cAMP level in RIN-38 cells, 10 min, peptide at 10^-7 M (no peptide: 140): 370
  cAMP level in RIN-38 cells, 10 min, peptide at 10^-8 M (no peptide: 140): 494
  cAMP level in RIN-38 cells, 10 min, peptide at 10^-9 M (no peptide: 140): 515
  cAMP level in RIN-38 cells, 10 min, peptide at 10^-10 M (no peptide: 140): 253
  cAMP level in RIN-38 cells, 10 min, peptide at 10^-11 M (no peptide: 140): 533
